Results as given in the supplement of paper PMC8960247.
Counter-ions that a name gives are not always drawn. ± gives the standard error.

How the values were obtained:
[1] = system: 621-102 (TSC2-deficient); test: relative viability vs DMSO; higher = less cytotoxic; settings: serum: 10% FBS, 72 h
[2] = system: 621-103 (TSC2-rescued); test: as above; settings: serum: 10% FBS, 72 h
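Also: immortalized renal angiomyolipoma cells stably carrying empty vector or TSC2, dosed in 384-well plates in DMEM, viability normalized to vehicle-treated wells within each plate.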

Row | Structure (SMILES) | relative viability ([1]; 0.0001 µM) [%] | relative viability ([1]; 0.001 µM) [%] | relative viability ([1]; 0.01 µM) [%] | relative viability ([1]; 0.1 µM) [%] | relative viability ([1]; 1 µM) [%] | relative viability ([1]; 10 µM) [%] | relative viability ([2]; 0.0001 µM) [%] | relative viability ([2]; 0.001 µM) [%] | relative viability ([2]; 0.01 µM) [%] | relative viability ([2]; 0.1 µM) [%] | relative viability ([2]; 1 µM) [%] | relative viability ([2]; 10 µM) [%]
1 | O=C(c1ccc(/C=C/c2n[nH]c3ccccc23)cc1)N1CCNCC1 [KW 2449] | 103 ± 1.6 | 92.5 ± 3.8 | 93.7 ± 0.96 | 94.1 ± 1.3 | 95.02 ± 0.93 | 37.58 ± 0.36 | 102.2 ± 0.34 | 101.3 ± 0.97 | 101.8 ± 0.59 | 102 ± 1.6 | 96.784 ± 0.018 | 15.1 ± 0.84
2 | O=C(c1ccc(F)cc1)C1CCN(CCn2c(=O)[nH]c3ccccc3c2=O)CC1 [Ketanserin (Vulketan Gel)] | 89 ± 2.5 | 103 ± 2.1 | 98.4 ± 2 | 103.9 ± 0.64 | 92.4 ± 3.8 | 88.1 ± 1.1 | 113.6 ± 1.1 | 103 ± 2.4 | 102.89 ± 0.072 | 105.8 ± 0.41 | 107 ± 1.4 | 96.3 ± 1
3 | O=C(c1ccccc1)c1ccc2n1CCC2C(=O)O (stereo not drawn) [Ketorolac] | 102 ± 1.8 | 102 ± 4.5 | 106 ± 2.7 | 109 ± 3.2 | 117 ± 4.6 | 94.8 ± 7.1 | 96.9 ± 1.1 | 121 ± 6.7 | 128 ± 4 | 112 ± 3.3 | 98.25 ± 0.73 | 108 ± 1.6
4 | CCCCCCCCCCCCCCCC(=O)OC[C@H](O)[C@H]1OC(=O)C(O)=C1O [L-Ascorbyl 6-palmitate] | 122 ± 5.9 | 111 ± 2.5 | 107 ± 3.4 | 107 ± 1.8 | 106.5 ± 0.81 | 111 ± 2.4 | 99.8 ± 2.5 | 105.8 ± 0.61 | 96.5 ± 3.2 | 100 ± 2.4 | 97.4 ± 2.1 | 94.9 ± 5
5 | Cc1[nH]c2ccccc2c1CCNCc1ccc(/C=C/C(=O)NO)cc1 [LBH-589 (Panobinostat)] | 96.4 ± 2.3 | 86.7 ± 1.3 | 69.1 ± 3.1 | 41.28 ± 0.39 | 25.4 ± 1 | 11.9 ± 0.59 | 97.6 ± 1.1 | 85.6 ± 1.8 | 52.19 ± 0.31 | 4.57 ± 0.076 | 1.66 ± 0.2 | 1.1 ± 0.019
6 | Cc1c(C(=O)Nc2ccc(N3C[C@@H](C)O[C@@H](C)C3)nc2)cccc1-c1ccc(OC(F)(F)F)cc1 [LDE225] | 91.8 ± 6.5 | 106 ± 2.3 | 116 ± 3.8 | 120 ± 0.74 | 115 ± 5.7 | 81.9 ± 9.2 | 92.8 ± 2.8 | 113 ± 7.7 | 112 ± 2.8 | 115.8 ± 0.72 | 116 ± 6.1 | 54.6 ± 1.5
7 | CS(=O)(=O)CCNCc1ccc(-c2ccc3ncnc(Nc4ccc(OCc5cccc(F)c5)c(Cl)c4)c3c2)o1 [Lapatinib Ditosylate] | 102.2 ± 0.43 | 100 ± 1.8 | 110 ± 2.3 | 101.41 ± 0.072 | 103 ± 2.5 | 82.9 ± 3.4 | 97.35 ± 0.2 | 96.4 ± 3.8 | 104 ± 1.5 | 101 ± 3.3 | 99.1 ± 4 | 48.9 ± 1.6
8 | Nc1cccc2c1CN(C1CCC(=O)NC1=O)C2=O (stereo not drawn) [Lenalidomide] | 107 ± 2.9 | 115 ± 1.9 | 113 ± 3 | 112 ± 2.1 | 109 ± 4.8 | 98.472 ± 0.068 | 101 ± 1.6 | 98.8 ± 1 | 100 ± 1.1 | 100.4 ± 0.81 | 100.5 ± 0.13 | 98.62 ± 0.12
9 | N#Cc1ccc(C(c2ccc(C#N)cc2)n2cncn2)cc1 [Letrozole] | 130 ± 1.9 | 114 ± 5.8 | 114 ± 0.22 | 104 ± 5 | 113.3 ± 0.22 | 111 ± 1.2 | 103 ± 1.7 | 105 ± 2 | 103.5 ± 0.86 | 99.5 ± 1 | 102.6 ± 0.18 | 101 ± 1.1
10 | CC(=O)NC[C@H]1CN(c2ccc(N3CCOCC3)c(F)c2)C(=O)O1 [Linezolid] | 99.5 ± 7.5 | 108 ± 2.5 | 102.8 ± 0.25 | 105 ± 2.2 | 102 ± 4.4 | 101.1 ± 0.19 | 105 ± 5.3 | 110 ± 4.4 | 98.2 ± 2.4 | 101 ± 0.73 | 103 ± 1.3 | 104 ± 3
11 | CN(C)C(=O)C(CCN1CCC(O)(c2ccc(Cl)cc2)CC1)(c1ccccc1)c1ccccc1 [Loperamide HCl] | 112.8 ± 0.39 | 107 ± 1.7 | 99.2 ± 2.1 | 109 ± 4.1 | 106 ± 4.2 | 82.5 ± 1.3 | 91.7 ± 4.4 | 84.8 ± 2.2 | 97.2 ± 1.4 | 98.2 ± 1.8 | 92.17 ± 0.64 | 59.5 ± 0.85
12 | O=c1cc(-c2ccc(O)c(O)c2)oc2cc(O)cc(O)c12 [Luteolin (Luteolol)] | 108.1 ± 0.74 | 104 ± 2.9 | 104.7 ± 0.25 | 100 ± 3 | 105.3 ± 0.74 | 101.9 ± 0.18 | 107.6 ± 0.4 | 103 ± 3.2 | 102 ± 1.6 | 100 ± 3.7 | 108 ± 4.5 | 92.4 ± 2
13 | Cn1cc(/C=C/C(=O)c2cccc(F)c2)cc1/C=C/C(=O)NO [MC1568] | 109.3 ± 0.42 | 106.9 ± 0.32 | 103 ± 7.3 | 104 ± 2.1 | 98.5 ± 4.7 | 102.6 ± 0.25 | 99.97 ± 0.52 | 98 ± 1 | 99.34 ± 0.99 | 98.5 ± 1.1 | 100 ± 1.3 | 101 ± 1.5
14 | CC(C)C[C@@H](C=O)NC(=O)[C@H](CC(C)C)NC(=O)[C@H](CC(C)C)NC(=O)OCc1ccccc1 [MG-132] | 104 ± 2.3 | 102 ± 4 | 99.9 ± 1.6 | 94.63 ± 0.69 | 4.41 ± 0.73 | 1.52 ± 0.059 | 99.8 ± 3.3 | 93.4 ± 2.7 | 95.3 ± 4.2 | 53.7 ± 8.3 | 2 ± 0.3 | 1.393 ± 0.0089
15 | Nc1ccccc1NC(=O)c1ccc(CNc2nccc(-c3cccnc3)n2)cc1 [MGCD0103 (Mocetinostat)] | 102.2 ± 1 | 100.9 ± 0.78 | 93.91 ± 0.76 | 83.5 ± 1.2 | 82.8 ± 1.6 | 34.1 ± 1.1 | 99.5 ± 1.3 | 102 ± 1.1 | 105.6 ± 0.9 | 93.1 ± 2.1 | 68.6 ± 0.98 | 18.5 ± 0.42
16 | O=C(CN1C(=O)C2(CCCC2)NC[C@H]1c1cc(F)cc(F)c1)Nc1ccc2c(c1)C[C@@]1(C2)C(=O)Nc2ncccc21 [MK 3207 hydrochloride] | 114 ± 1.5 | 114 ± 1.4 | 114.8 ± 0.14 | 113 ± 3.3 | 116.5 ± 0.26 | 104 ± 2.5 | 103 ± 1.3 | 103 ± 1.4 | 101.4 ± 0.9 | 101.2 ± 0.77 | 102 ± 2 | 102 ± 1.4
17 | O=C(O)CC[C@H]1CC[C@@](c2cc(F)ccc2F)(S(=O)(=O)c2ccc(Cl)cc2)CC1 [MK-0752] | 108 ± 3.6 | 104 ± 3.3 | 102 ± 3.8 | 98.1 ± 2.5 | 101.6 ± 0.5 | 97 ± 5 | 115 ± 4.2 | 108 ± 0.7 | 107 ± 1.9 | 111.21 ± 0.076 | 106 ± 5.4 | 111 ± 1.3
18 | NC1(c2ccc(-c3nc4ccn5c(=O)[nH]nc5c4cc3-c3ccccc3)cc2)CCC1 [MK-2206] | 102.1 ± 0.84 | 102 ± 4.5 | 101 ± 2.4 | 98.62 ± 0.66 | 95.7 ± 1.4 | 59 ± 3.6 | 79.7 ± 4.3 | 81.98 ± 0.32 | 79.4 ± 1.1 | 77.6 ± 1.3 | 74 ± 2.4 | 25.2 ± 3.4
19 | S=C(NCc1ccc2c(c1)OCO2)N1CCN(c2ncnc3c2oc2ccccc23)CC1 [MP-470] | 105 ± 1.2 | 116 ± 4.3 | 112 ± 2.3 | 125 ± 1.3 | 118 ± 4.8 | 116.2 ± 0.7 | 88.5 ± 5.1 | 104 ± 1.4 | 103.8 ± 0.57 | 106 ± 1.4 | 105.95 ± 0.02 | 112 ± 3.2
